Patent publication US20220016092A1, “METHODS FOR TREATING SYMPTOMS AND DISORDERS ASSOCIATED WITH LYSOSOMAL STORAGE DISEASES” (GENZYME CORPORATION, priority 2019, published 2022)
Where two headings read alike, the source gives them in different places.

How the values were obtained:
Assay type in all cases: in vivo, human
[1] = Clinical study in GD-3 patients: Compound 2 concentrations in plasma and CSF; details: 15 mg/day + imiglucerase; for AUC(0-t): read-out: AUC0-24 (mean ± SD); for Cmax: read-out: Cmax (mean ± SD)
Source text: Patients 18 years of age or older with a clinical diagnosis of GD3 and documented deficiency of acid beta-glucosidase activity having received treatment with ERT for at least 3 years and with imiglucerase (Cerezyme) at a stable monthly dose for at least 6 months prior to enrollment were included in the study. Patients must have reached the following GD therapeutic goals: hemoglobin level of ≥11.0 g/dL for females and ≥12.0 g/dL for males; platelet count ≥100 000/mm3; spleen volume <10 multiples of normal (MN), or total splenectomy (provided the splenectomy occurred >3 years prior to randomization); liver volume <1.5 MN; and no bone crisis and free of symptomatic bone disease such as bone pain attributable to osteonecrosis and/or pathological fractures within the last year. Patients must have GD3 featuring oculomotor apraxia (supranuclear gaze palsy) characterized by a horizontal saccade abnormality.
(§1) During the study patients were evaluated for safety and tolerability, CSF and plasma biomarkers (glucosylceramide, GL-1; glucosylsphingosine, lyso-GL1), pharmacokinetics, markers for systemic disease (spleen and liver volume measured by magnetic resonance imaging (MRI), platelet count, hemoglobin levels), indicia of interstitial lung disease (high resolution pulmonary computed tomography (CT)), and horizontal saccadic eye movement.
A second interim analysis was performed when the first 6 patients had reached 52-weeks of treatment, as described above in section (A). This analysis included Patients 1-5 as described in section (A), as well as new Patient 6. All six patients had L444P (1448T/C) homozygous Gaucher phenotype.

[2] = test system: adult patients with Gaucher disease Type 3; assay: Clinical study in GD-3 patients: horizontal and vertical saccadic eye movements; details: 15 mg/day + imiglucerase
Experimental: as §1
Quantification of horizontal and vertical saccadic eye movements (HSEM and VSEM, respectively) was performed in all 5 patients. In the five patients, mean peak velocity (PV) of horizontal rightward 15° saccades was 50.8°/s (+/−8.1°/s) at baseline and […] (+/−12.6°/s) at Week 26; and the mean PV of horizontal leftward 15° saccades was 44.7° /s (+/−17.9°/s) at baseline and 32.3°/s (+/−15.9°/s) at Week 26. A slower velocity implies a more significant degree of neurological impairment. The mean PV of horizontal rightward 30° saccades was 77.7°/s (+/−16.4°/s) at baseline and […] (+/−24.7°/s) at Week 26; and the mean PV of horizontal leftward 30° saccades was 58.7°/s (+/−21.5°/s) at baseline and 49.9°/s (+/−8.5°/s) at Week 26. The normal range for […] horizontal saccades has previously been reported as >200°/s and >400°/s (Bremova-Ertl et al, 2018). […] As with HSEM, VSEM measurements were stable between baseline and week 26.
At 52 weeks, quantification of horizontal and vertical saccadic eye movements was performed in all six patients in a similar manner as described in section (A). However, it was determined that the methodology used to account for noise (e.g., caused by blinking or head movements) may have introduced bias into the results. The method of accounting for noise was therefore modified, and a set of control criteria were developed to assess validity of the datasets obtained by the eye movement reader.

[3] = test system: adult patients with Gaucher disease Type 3; assay: Clinical study in GD-3 patients: Scale for Assessment and Rating of Ataxia (SARA); details: 15 mg/day + imiglucerase
Experimental: The degree of ataxia at baseline and throughout the study was evaluated by the Scale for Assessment and Rating of Ataxia (SARA; Schmitz-Hübsch et al. [2006]), which assesses eight distinct attributes of cerebellar ataxia on a scale of 0-40. The eight attributes are gait, stance, sitting, speech disturbance, finger chase, nose-finger test, fast alternate hand movement, and heel-shin slide. SARA ataxia scoring results for all six patients is presented in the chart below: […]

[4] = Study 2: ascending repeated-dose pharmacokinetics in healthy volunteers; details: for AUC(0-t) / Cmax / Tmax / CL renal: both sexes, human, oral; for AUC(0-t) / Cmax / Tmax: plasma; for Tmax: read-out: tmax, median (range); for CL renal: urine and plasma
[5] = test system: plasma GL-1, GL-3, and GM3; assay: Study 2: pharmacodynamics in healthy volunteers; details: healthy adults; all dose groups (5, 10, 20 mg)
Experimental: The study enrolled and randomized 36 healthy adults (19 men and 17 women) (n=9 each to group).
Pharmacodynamic endpoints (plasma GL-1, GL-3, and GM3 concentrations) were assessed on Days 1-5, 8, 11, 13, and 14, at 0 hours […]; and on Day 15, at 24 hours after the Day 14 dose.

[6] = human, plasma, oral, plasma, Day 1 (N = 5)
[7] = human, plasma, oral, plasma, Day 1 (N = 6)

Compound: CC(C)(NC(=O)O[C@@H]1CN2CCC1CC2)c1csc(-c2ccc(F)cc2)n1 [Compound 2, (S)-quinuclidin-3-yl 2-(2-(4-fluorophenyl)thiazol-4-yl)propan-2-ylcarbamate]
- Crossing of the blood-brain barrier [1]: effectively cross the blood-brain barrier in all patients
- Time at which steady state concentration is reached in plasma and CSF [1]: ≤ 4 Week
- Concentration in CSF 2-4 hours post dose (mean ± SD) ([1]; Day 1 (N = 6)): <LLOQ
- Concentration in CSF 4 hours post dose (mean ± SD) ([1]; Week 4 (N = 5)): 4.17 ± 0.83 ng/mL
- Concentration in CSF 4 hours post dose (mean ± SD) ([1]; Week 26 (N = 4)): 4.71 ± 2.50 ng/mL
- tmax (median) ([1]; plasma, Day 1 (N = 6)): 2.00 h
- Tmax ([1]; human, oral, plasma, Day 1 (N = 5), read-out: tmax (median)): 2 h
- AUC(0-t) [1, 6]: 715 ± 225 ng·h/mL
- Cmax [1, 6]: 48.2 ± 19.2 ng/mL
- AUC(0-t) [1, 7]: 729 ± 205 ng·h/mL
- Cmax [1, 7]: 49.1 ± 17.3 ng/mL
- Changes in HSEM ([2]; 26-week treatment period): no clinically meaningful changes in HSEM
- Mean peak velocity of horizontal leftward 15° saccades ([2]; Week 26, five patients): 32.3 °/s
- Mean peak velocity of horizontal leftward 30° saccades ([2]; Week 26, five patients): 49.9 °/s
- VSEM measurements ([2]; between baseline and week 26): stable
- Patients showing improvements in ataxia ([3]; 52 weeks): 5 of 6
- Patients exhibiting an improvement in ataxia, excluding Patient 5 ([3]; Week 52): 4 out of 5
- Mean improvement in SARA score, excluding Patient 5 ([3]; Week 52, SD=3.2): −0.9
- AUC(0-t) ([4]; 5 mg, healthy adults, 5 mg once daily, Day 1 (N = 9), read-out: AUC0-24, Geometric mean (CV)): 292 ng·h/mL
- AUC(0-t) ([4]; 5 mg, healthy adults, 5 mg once daily, Day 1 (N = 9), read-out: AUC0-24, Mean (SD)): 296 ng·h/mL
- Cmax ([4]; 5 mg, healthy adults, 5 mg once daily, Day 1 (N = 9), read-out: Cmax, Geometric mean (CV)): 18.2 ng/mL
- Cmax ([4]; 5 mg, healthy adults, 5 mg once daily, Day 1 (N = 9), read-out: Cmax, Mean (SD)): 18.5 ng/mL
- Tmax ([4]; 5 mg, healthy adults, 5 mg once daily, Day 1 (N = 9)): 5 h
- AUC(0-t) ([4]; 5 mg, healthy adults, 5 mg once daily, Day 14 (N = 9), read-out: AUC0-24, Geometric mean (CV)): 632 ng·h/mL
- AUC(0-t) ([4]; 5 mg, healthy adults, 5 mg once daily, Day 14 (N = 9), read-out: AUC0-24, Mean (SD)): 642 ng·h/mL
- Cmax ([4]; 5 mg, healthy adults, 5 mg once daily, Day 14 (N = 9), read-out: Cmax, Geometric mean (CV)): 36.5 ng/mL
- Cmax ([4]; 5 mg, healthy adults, 5 mg once daily, Day 14 (N = 9), read-out: Cmax, Mean (SD)): 37 ng/mL
- Tmax ([4]; 5 mg, healthy adults, 5 mg once daily, Day 14 (N = 9)): 3 h
- AUC(0-t) ([4]; 10 mg, healthy adults, 10 mg once daily, Day 1 (N = 9), read-out: AUC0-24, Geometric mean (CV)): 623 ng·h/mL
- AUC(0-t) ([4]; 10 mg, healthy adults, 10 mg once daily, Day 1 (N = 9), read-out: AUC0-24, Mean (SD)): 635 ng·h/mL
- Cmax ([4]; 10 mg, healthy adults, 10 mg once daily, Day 1 (N = 9), read-out: Cmax, Geometric mean (CV)): 37.8 ng/mL
- Cmax ([4]; 10 mg, healthy adults, 10 mg once daily, Day 1 (N = 9), read-out: Cmax, Mean (SD)): 38.5 ng/mL
- Tmax ([4]; 10 mg, healthy adults, 10 mg once daily, Day 1 (N = 9)): 3 h
- AUC(0-t) ([4]; 10 mg, healthy adults, 10 mg once daily, Day 14 (N = 9), read-out: AUC0-24, Geometric mean (CV)): 1490 ng·h/mL
- AUC(0-t) ([4]; 10 mg, healthy adults, 10 mg once daily, Day 14 (N = 9), read-out: AUC0-24, Mean (SD)): 1550 ng·h/mL
- Cmax ([4]; 10 mg, healthy adults, 10 mg once daily, Day 14 (N = 9), read-out: Cmax, Geometric mean (CV)): 86 ng/mL
- Cmax ([4]; 10 mg, healthy adults, 10 mg once daily, Day 14 (N = 9), read-out: Cmax, Mean (SD)): 89.7 ng/mL
- Tmax ([4]; 10 mg, healthy adults, 10 mg once daily, Day 14 (N = 9)): 2 h
- AUC(0-t) ([4]; 20 mg, healthy adults, 20 mg once daily, Day 1 (N = 9), read-out: AUC0-24, Geometric mean (CV)): 1080 ng·h/mL
- AUC(0-t) ([4]; 20 mg, healthy adults, 20 mg once daily, Day 1 (N = 9), read-out: AUC0-24, Mean (SD)): 1100 ng·h/mL
- Cmax ([4]; 20 mg, healthy adults, 20 mg once daily, Day 1 (N = 9), read-out: Cmax, Geometric mean (CV)): 66.5 ng/mL
- Cmax ([4]; 20 mg, healthy adults, 20 mg once daily, Day 1 (N = 9), read-out: Cmax, Mean (SD)): 68 ng/mL
- Tmax ([4]; 20 mg, healthy adults, 20 mg once daily, Day 1 (N = 9)): 3.07 h
- AUC(0-t) ([4]; 20 mg, healthy adults, 20 mg once daily, Day 14 (N = 9), read-out: AUC0-24, Geometric mean (CV)): 2340 ng·h/mL
- AUC(0-t) ([4]; 20 mg, healthy adults, 20 mg once daily, Day 14 (N = 9), read-out: AUC0-24, Mean (SD)): 2420 ng·h/mL
- Cmax ([4]; 20 mg, healthy adults, 20 mg once daily, Day 14 (N = 9), read-out: Cmax, Geometric mean (CV)): 137 ng/mL
- Cmax ([4]; 20 mg, healthy adults, 20 mg once daily, Day 14 (N = 9), read-out: Cmax, Mean (SD)): 142 ng/mL
- Tmax ([4]; 20 mg, healthy adults, 20 mg once daily, Day 14 (N = 9)): 3 h
- CL renal ([4]; 5 mg, healthy adults, 5 mg once daily, Day 14 (N = 9), read-out: CLR(0-24), Mean (SD) (converted)): 25.8 mL/min
- CL renal ([4]; 10 mg, healthy adults, 10 mg once daily, Day 14 (N = 9), read-out: CLR(0-24), Geometric mean (CV) (converted)): 23.3 mL/min
- CL renal ([4]; 10 mg, healthy adults, 10 mg once daily, Day 14 (N = 9), read-out: CLR(0-24), Mean (SD) (converted)): 24.8 mL/min
- CL renal ([4]; 20 mg, healthy adults, 20 mg once daily, Day 14 (N = 9), read-out: CLR(0-24), Geometric mean (CV) (converted)): 33.3 mL/min
- CL renal ([4]; 20 mg, healthy adults, 20 mg once daily, Day 14 (N = 9), read-out: CLR(0-24), Mean (SD) (converted)): 34.5 mL/min
- CLss/F, Geometric mean (CV) ([4]; healthy adults, 5 mg once daily, Day 14 (N = 9)): 5.9 (19.5) L/h
- CLss/F, Geometric mean (CV) ([4]; healthy adults, 10 mg once daily, Day 14 (N = 9)): 5.0 (24.4) L/h
- CLss/F, Geometric mean (CV) ([4]; healthy adults, 20 mg once daily, Day 14 (N = 9)): 6.4 (25.8) L/h
- Ctrough values over time ([4]; healthy adults, 5, 10, or 20 mg once daily for 14 days): reached a plateau after Day 5
- Time to steady state ([4]; healthy adults, repeated once-daily doses from 5-20 mg): ≤ 5 days
- Plasma GL-3 over time [5]: decreased with time
